One experiment deals with T1, human MCHR1 (Homo sapiens, UniProt Q99705).
T1 construct: expressed in transfected cells; host or cells: CHO dhfr- cells, clone #4
The experiment can be described thus: MCH receptor 1 antagonistic activity, Ca2+ mobilization assay. It is filed as cell-based. To be noted: CHO, test compound 0.1 μM; human MCHR1-expressing CHO cells (clone #4); ligand MCH(4-19) 2 nM; read-out: Inhibitory rate % (0.1 μM). The procedure:
Measurement of MCH Receptor 1 Antagonistic Activity of Test Compound Using Ca^2+ Mobilization Assay Using an expression vector plasmid introduced with human MCHR1 gene for expression in animal cells, human MCHR1 gene was introduced into CHO cells (CHO dhfr^−) by Lipofectamine LTX (Invitrogen). The cells were cultured in selection MEMα medium [445 mL of MEMα medium without nucleic acid and added with 5 mL of Penicillin-Streptomycin (Invitrogen) and 50 mL of dialyzed fetal bovine serum]. Colony 24 clones grown in the selection medium, which were human MCHR1 gene-expressing CHO cell candidates, were selected. […] In the following test, this human MCHR1-expressing CHO cell (clone #4) was used. An integrated dispensing function fluorometer (CellLux, PerkinElmer) was used for Ca^2+ mobilization assay. […] The medium was removed, and the cells were washed with phosphate buffered saline (PBS). […] The plate was set on a plate reader. […] The inhibition rates (%) of test compounds (0.1 μM) as antagonist activity measured using human MCHR1-expressing CHO cells (clone #4) are shown in the following Table 3.
Background: Calcium flux is commonly read through the fluorescence of an indicator in the cells.

For experiment [1], the target named is T2, human MCH receptor 1 (MCHR1) (Homo sapiens, UniProt Q99705).
T2 construct: expressed in transfected cells; host or cells: CHO cell clone 57 (membrane fraction)
The experiment can be described thus: human MCH receptor 1 (MCHR1) competitive binding assay with [125I]-MCH(4-19). To be noted: test compound 0.1 μM, human MCHR1-expressing CHO cell membrane fraction, read-out: Binding inhibition rate % (0.1 μM). The procedure:
Determination of human MCH receptor 1 (MCHR1) competitive inhibitory activity of test compound using binding assay
1. Preparation of Membrane Fraction
Using human MCHR1 (=SLC-1 receptor)-expressing CHO cell clone 57 described in WO01/82925, MCHR1-expressing CHO cell membrane fractions were prepared by the following method.
In phosphate buffered saline (pH 7.4) supplemented with 5 mM EDTA (ethylenediaminetetraacetic acid) were respectively suspended human MCHR1-expressing CHO cells (1×10^8 cells) and centrifuged. Homogenate buffer (10 mL, 10 mM NaHCO3, 5 mM EDTA, pH 7.5, 0.5 mM PMSF (phenylmethylsulfonyl fluoride), 20 mg/L leupeptin, 4 mg/L E-64, 1 mg/L pepstatin A) was added to the pellets of the cells and, using Polytron Homogenizer, the mixture was homogenated. The supernatant obtained after centrifugation at 400×g for 10 min was further centrifuged at 100,000×g for 1 hr to give precipitate of the membrane fraction. The precipitate were suspended in 2 mL of assay buffer [20 mM Tris-HCl (pH 7.5), 5 mM EDTA, 0.5 mM PMSF, 20 mg/L leupeptin, 4 mg/L E-64, 1 mg/L pepstatin A]. The membrane fractions were suspended in assay buffer to a protein concentration of 2 mg/mL, and after dispensing, preserved at −80° C. and used upon thawing each time when in use.
The MCHR1 ligand binding inhibitory activity of the test compound was determined as follows.
An MCHR1-expressing CHO cell membrane fraction (173 μL) diluted with an assay buffer was dispensed to a 96 well polypropylene plate (3363, Corning). DMSO solution (2 μL), 33 μM cold MCH(1-19) diluted with DMSO solution (2 μL), or a test compound solution diluted with DMSO solution to various concentrations (2 μL) was added, and lastly, [^125I]-MCH (4-19) diluted with assay buffer (hereinafter, sometimes to be referred to as “hot MCH”, 25 μL) was added to each well. The mixture was reacted with stirring at room temperature for 1 hr, and the plate was set on FilterMate Harvester (PerkinElmer). Using a treating glass filter plate (GF/C, PerkinElmer) with polyethyleneimine, which had been previously set, the plate was suction-filtered and washed three times with washing buffer (50 mM Tris-HCl buffer pH 7.5). The glass filter plate was dried, MicroScinti0 (PerkinElmer) was added at 25 μL/well, and the resulting radioactivity was measured by TopCount liquid scintillation counter (PerkinElmer). The binding inhibition rate of the test compound was calculated by the following formula. Binding inhibition (%)=100−(radioactivity upon addition of test compound and hot MCH−radioactivity upon addition of cold MCH and hot MCH solution)/(radioactivity upon addition of DMSO solution and hot MCH−radioactivity upon addition of cold MCH and hot MCH solution)×100
The binding inhibition rates (%) of test compounds (0.1 μM) as measured using human MCHR1-expressing CHO cell are shown in Table 2.

T2 sequence (Q99705 whole entry): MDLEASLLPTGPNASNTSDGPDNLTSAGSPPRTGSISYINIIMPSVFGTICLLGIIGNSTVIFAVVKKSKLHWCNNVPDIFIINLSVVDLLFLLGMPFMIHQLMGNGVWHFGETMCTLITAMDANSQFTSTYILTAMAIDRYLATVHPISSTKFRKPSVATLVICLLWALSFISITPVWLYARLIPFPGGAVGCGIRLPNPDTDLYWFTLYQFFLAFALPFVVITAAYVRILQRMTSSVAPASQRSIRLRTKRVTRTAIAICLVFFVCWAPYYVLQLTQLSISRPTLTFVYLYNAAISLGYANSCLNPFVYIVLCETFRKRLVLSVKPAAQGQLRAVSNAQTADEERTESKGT
T1 sequence (Q99705 whole entry): as above

As for `Cn1c([C@@H]2C[C@@H]2C(C)(C)O)nc2ccc(-n3ccc(OCc4ccc(Cl)cc4)cc3=O)cc21` (racemic) [Example 80, 4-((4-Chlorobenzyl)oxy)-1-(2-((1RS,2SR)-2-(2-hydroxypropan-2-yl)cyclopropyl)-1-methyl-1H-benzimidazol-6-yl)pyridin-2(1H)-one], the inhibition at 0.1 µM at human MCHR1 is 99%; in experiment [1], 91%.

In the case of `Cn1c([C@H]2C[C@H]2C#N)nc2ccc(-n3ccc(OCc4ccc(Cl)cc4)cc3=O)cc21` (racemic) [Example 148, (1RS,2SR)-2-(6-(4-((4-Chlorobenzyl)oxy)-2-oxopyridin-1(2H)-yl)-1-methyl-1H-benzimidazol-2-yl)cyclopropanecarbonitrile], the inhibition at 0.1 µM on human MCHR1 amounted to 94%; in experiment [1], 69%. As for `Cn1c(C2CC2)nc2ccc(-n3ccc([C@@H]4C[C@H]4c4ccc(Cl)cc4)cc3=O)cc21` (racemic) [Example 253, 4-((1RS,2RS)-2-(4-chlorophenyl)cyclopropyl)-1-(2-cyclopropyl-1-methyl-1H-benzimidazol-6-yl)pyridin-2(1H)-one], the results for the inhibition at 0.1 µM (at human MCHR1; in experiment [1]) were 69% and 64%, respectively. On to `Cn1c(C(=O)C2CC2)nc2ccc(-n3ccc(OCc4ccc(F)cc4)cc3=O)cc21` [Example 31, 1-(2-(Cyclopropylcarbonyl)-1-methyl-1H-benzimidazol-6-yl)-4-((4-fluorobenzyl)oxy)pyridin-2(1H)-one], for which the results for the inhibition at 0.1 µM (on human MCHR1; in experiment [1]) were 61% and 52%, respectively.

Take `CC(C)Cc1nc2ccc(-n3ccc(OCc4ccc(Cl)cc4)cc3=O)cc2n1C` [Example 37, 4-((4-Chlorobenzyl)oxy)-1-(2-isobutyl-1-methyl-1H-benzimidazol-6-yl)pyridin-2(1H)-one]: the results for the inhibition at 0.1 µM (at human MCHR1; in experiment [1]) were 51% and 59%, respectively. Consider `CC1CC1c1nc2ccc(-n3ccc(OCc4ccc(F)cc4)cc3=O)cc2n1C` (centres unmarked) [Example 43, 4-((4-Fluorobenzyl)oxy)-1-(1-methyl-2-(2-methylcyclopropyl)-1H-benzimidazol-6-yl)pyridin-2(1H)-one], for which the inhibition at 0.1 µM at human MCHR1 amounted to 100%; in experiment [1], 69%. For `Cc1c(C2CC2)nc2ccc(-n3ncc(OCc4ccc(Cl)cc4)cc3=O)cn12` [Example 55, 5-((4-Chlorobenzyl)oxy)-2-(2-cyclopropyl-3-methylimidazo[1,2-a]pyridin-6-yl)pyridazin-3(2H)-one], the values for the inhibition at 0.1 µM (at human MCHR1; in experiment [1]) were 78% and 53%, respectively. On to `Cn1c(C2CC2(F)F)nc2ccc(-n3ccc(OCc4ccc(Cl)cc4)cc3=O)cc21` (centres unmarked) [Example 62, 4-((4-Chlorobenzyl)oxy)-1-(2-(2,2-difluorocyclopropyl)-1-methyl-1H-benzimidazol-6-yl)pyridin-2(1H)-one], for which the figures for the inhibition at 0.1 µM (on human MCHR1; in experiment [1]) were 57% and 63%, respectively.

For `CCCc1nc2ccc(-n3ccc(OCc4ccc(F)cc4)cc3=O)cc2n1C` [Example 64, 4-((4-Fluorobenzyl)oxy)-1-(1-methyl-2-propyl-1H-benzimidazol-6-yl)pyridin-2(1H)-one], the figures for the inhibition at 0.1 µM (at human MCHR1; in experiment [1]) were 99% and 76%, respectively. `CC(=O)c1nc2ccc(-n3ccc(OCc4ccc(F)cc4)cc3=O)cc2n1C` [Example 66, 1-(2-Acetyl-1-methyl-1H-benzimidazol-6-yl)-4-((4-fluorobenzyl)oxy)pyridin-2(1H)-one]: the inhibition at 0.1 µM at human MCHR1 is 84%; in experiment [1], 57%. For `Cn1c(-c2cnco2)nc2ccc(-n3ccc(OCc4ccc(F)cc4)cc3=O)cc21` [Example 69, 4-((4-Fluorobenzyl)oxy)-1-(1-methyl-2-(1,3-oxazol-5-yl)-1H-benzimidazol-6-yl)pyridin-2(1H)-one], in that order: 58% and 65%. In the same order, the values of `Cc1c(C2CC2)nc2ccc(-n3ccc(OCc4ccc(Cl)cc4)nc3=O)cn12` [Example 70, 4-((4-Chlorobenzyl)oxy)-1-(2-cyclopropyl-3-methylimidazo[1,2-a]pyridin-6-yl)pyrimidin-2(1H)-one] are 35% and 79%. `Cn1c(C2CC2)nc2ccc(-n3ccc(OCc4ccccc4F)cc3=O)cc21` [Example 71, 1-(2-Cyclopropyl-1-methyl-1H-benzimidazol-6-yl)-4-((2-fluorobenzyl)oxy)pyridin-2(1H)-one]: the inhibition at 0.1 µM is 43% on human MCHR1 and 72% in experiment [1]. For `Cn1c(C2CC2)nc2ccc(-n3ccc(OCc4csc(F)c4)cc3=O)cc21` [Example 216, 1-(2-Cyclopropyl-1-methyl-1H-benzimidazol-6-yl)-4-((5-fluoro-3-thienyl)methoxy)pyridin-2(1H)-one], in experiment [1], the inhibition at 0.1 µM was determined as 88%. For the molecule `Cn1c(C2CC2)nc2ccc(-n3ccc(OCc4ccsc4F)cc3=O)cc21` [Example 217, 1-(2-Cyclopropyl-1-methyl-1H-benzimidazol-6-yl)-4-((2-fluoro-3-thienyl)methoxy)pyridin-2(1H)-one], the inhibition at 0.1 µM in experiment [1] turned out to be 73%. Take `Cn1c(C2CC2)nc2ccc(-n3ccc(OCc4ccsc4Cl)cc3=O)cc21` [Example 221, 4-((2-Chloro-3-thienyl)methoxy)-1-(2-cyclopropyl-1-methyl-1H-benzimidazol-6-yl)pyridin-2(1H)-one]: the inhibition at 0.1 µM in experiment [1] is 58%.

`CCc1nc2ccc(-n3ccc(OCc4ccc(Cl)c(F)c4)cc3=O)cc2n1C` [Example 229, 4-((4-Chloro-3-fluorobenzyl)oxy)-1-(2-ethyl-1-methyl-1H-benzimidazol-6-yl)pyridin-2(1H)-one]: the inhibition at 0.1 µM in experiment [1] came to 45%. Take `Cn1c(C2CC2)nc2ccc(-n3ccc(OCc4cc(Br)c(Cl)s4)cc3=O)cc21` [Example 232, 4-((4-Bromo-5-chloro-2-thienyl)methoxy)-1-(2-cyclopropyl-1-methyl-1H-benzimidazol-6-yl)pyridin-2(1H)-one]: the inhibition at 0.1 µM in experiment [1] turned out to be 73%. As for `CCc1nc2ccc(-n3ccc(OCc4ccc(C(F)(F)F)s4)cc3=O)cc2n1C` [Example 233, 1-(2-Ethyl-1-methyl-1H-benzimidazol-6-yl)-4-((5-(trifluoromethyl)-2-thienyl)methoxy)pyridin-2(1H)-one], in experiment [1], the inhibition at 0.1 µM stood at 67%. On to `CCc1nc2ccc(-n3ccc(OCc4ccsc4F)cc3=O)cc2n1C` [Example 234, 1-(2-Ethyl-1-methyl-1H-benzimidazol-6-yl)-4-((2-fluoro-3-thienyl)methoxy)pyridin-2(1H)-one], for which the inhibition at 0.1 µM in experiment [1] came out at 50%.

Take `CCc1nc2ccc(-n3ccc(OCc4ccc(F)s4)cc3=O)cc2n1C` [Example 246, 1-(2-Ethyl-1-methyl-1H-benzimidazol-6-yl)-4-((5-fluorothiophen-2-yl)methoxy)pyridin-2(1H)-one]: the inhibition at 0.1 µM in experiment [1] was found to be 52%. As for `Cn1c(C2CC2)nc2ccc(-n3ccc(OCc4ccc5sccc5c4)cc3=O)cc21` [Example 255, 4-(1-Benzothiophen-5-ylmethoxy)-1-(2-cyclopropyl-1-methyl-1H-benzimidazol-6-yl)pyridin-2(1H)-one], the inhibition at 0.1 µM in experiment [1] was 85%.

Source of the values: US9365540B2, “Benzimidazole derivatives as MCH receptor antagonists” (Takeda Pharmaceutical Company Limited, priority 2012, dated 2016).
